Data from patent publication US20030004162A1, “Use of glycogen phosphorylase inhibitors” (priority 2000, published 2003).

| Compound | melting point |
| --- | --- |
| CCN1C(=O)C(C(=O)Nc2cccc(C(=O)Nc3ccc(I)cc3)c2)c2cc(C(C)=O)ccc21 (stereo not drawn) [Example 9, 5-Acetyl-1-ethyl-2-oxo-2,3-dihydro-1H-indole-3-carboxylic acid [3-(4-iodo-phenylcarbamoyl)-phenyl]-amide] | 205 to 210 °C |
| CC(=O)c1ccc2c(c1)C(C(=O)Nc1cccc(C(=O)Nc3ccccc3)c1)C(=O)N2CC(F)(F)F (stereo not drawn) [Example 16, 5-Acetyl-2-oxo-1-(2,2,2-trifluoro-ethyl)-2,3-dihydro-1H-indole-3-carboxylic acid (3-phenylcarbamoyl-phenyl)-amide] | 197 to 203 °C |
| CCC(=O)c1ccc2c(c1)C(C(=O)Nc1cccc(C(=O)Nc3ccccc3)c1)C(=O)N2CC (stereo not drawn) [Example 14, 1-Ethyl-2-oxo-5-propionyl-2,3-dihydro-1H-indole-3-carboxylic acid (3-phenylcarbamoyl-phenyl)-amide] | 179 to 180 °C |
| CC(=O)c1ccc2c(c1)C(C(=O)Nc1cccc(C(=O)Nc3ccccc3)c1)C(=O)N2C (stereo not drawn) [Example 12, 5-Acetyl-1-methyl-2-oxo-2,3-dihydro-1H-indole-3-carboxylic acid (3-phenylcarbamoyl-phenyl)-amide] | 178 to 179 °C |
| O=C(N[C@@H](Cc1ccccc1)C(=O)N1CCOCC1)c1cc2cc(Cl)sc2[nH]1 [Example 19, 2-Chloro-6H-thieno[2,3-b]pyrrole-5-carboxylic acid [(1S)-benzyl-2-morpholin-4-yl-2-oxo-ethyl]-amide] | 108 to 110 °C |
| CCN1C(=O)C(C(=O)Nc2cccc(C(=O)Nc3ccccc3)c2)c2cc(C(C)=O)ccc21 (stereo not drawn) [Example 1, 5-Acetyl-1-ethyl-2-oxo-2,3-dihydro-1H-indole-3-carboxylic acid (3-phenylcarbamoyl-phenyl)-amide] | 173 to 175 °C |
